Earlier results on five compounds are cited in US7148350B2, “Compounds in the form of homodimeric or heterodimeric pro-drugs; process for obtaining these pro-drugs and their acceptable pharmaceutical salts and use of compounds in the treatment of phosphodiesterases-mediated diseases or dysfunction” (Cristalia Prod.Qui.Farm. LTDA, priority 2000, dated 2006).

What is called EC50 is the concentration that produces a half-maximal response.

The structures appear in SMILES notation.

The conditions of data set [1]: dimer versus isolated monomers.
For data set [2], the system named is granulocyte progenitor cells and macrophages. The settings on record: dimer versus monomers.
The subject of the next data set is erectile dysfunction. The settings on record: oral administration; patients with organic erectile dysfunction.
For data set [3] the following is noted: after administration; limited by pre-systemic metabolism.

Turning to `Cc1cn([C@H]2C[C@H](N=[N+]=[N-])[C@@H](CO)O2)c(=O)[nH]c1=O` [AZT, zidovudine], the EC50 in data set [1] is 3.9 nM. Besides, the oral bioavailability (after oral administration of AZT-P-DDI) is given as 64.7–67.3%.
Turning to `Cc1cn([C@H]2C[C@H](N=[N+]=[N-])[C@@H](COP(=O)(O)OC[C@@H]3CC[C@H](n4cnc5c(=O)[nH]cnc54)O3)O2)c(=O)[nH]c1=O` [AZT-P-DDI], the EC50 in data set [1] was 0.14 nM. Moreover, the “less toxicity (fold)” value in data set [2] is given as 10 times. Also, under “intravenous administration, 50 or 100 mg”, the “time after which plasmatic concentration is no longer detected” value was 30 min. The “detection of the dimer after oral administration” value (oral administration) is “not detected”.
Take `O=c1[nH]cnc2c1ncn2[C@H]1CC[C@@H](CO)O1` [DDI, didanosine]: the EC50 in data set [1] is 460 nM.
Consider `COC(=O)[C@@H]1[C@H]2C[C@H]3c4[nH]c5ccccc5c4CCN3C[C@@H]2CC[C@@H]1O` [Yohimbine], for which the effectiveness result with erectile dysfunction is listed as “low”.
Regarding `CCCc1nn(C)c2c(=O)[nH]c(-c3cc(S(=O)(=O)N4CCN(C)CC4)ccc3OCC)nc12` [sildenafil], in data set [3], the absolute bioavailability is 40%.
